# In patent US20230295110A1, “PHD INHIBITOR COMPOUNDS, COMPOSITIONS, AND METHODS OF USE” (Akebia Therapeutics, Inc., priority 2020, published 2023):
# pIC50: −log10 of the molar value. Like-named read-outs stand apart in the source and are kept apart here.
# Experiments:
# full-length human PHD1 = full-length human PHD1 (Homo sapiens (Human), UniProt Q96KS0); experiment: TR-FRET assay for PHD enzymes, PHD1; assay type: biochemical; conditions: for pIC50: TR-FRET, 15 nM PHD1, 1 μM 2-OG
# Excerpt: PHD1 was expressed in a baculovirus expression system as the full-length protein (NCBI accession number NP_542770.2) with an N-terminal FLAG tag (molecular weight 44.9 kDa).
# full-length human PHD2 = full-length human PHD2 (Homo sapiens (Human), UniProt Q9GZT9); experiment: TR-FRET assay for PHD enzymes, PHD2
# Excerpt: Time-resolved fluorescence resonance energy transfer (TR-FRET) assay was utilized to determine the enzymatic half maximal inhibitory concentration (IC50) value of PHD inhibitors against the full-length human prolyl-4-hydroxylase domain (PHD) enzymes, PHD1, PHD2, and PHD3. The TR-FRET assay was developed based on the specific binding of hydroxylated HIF-1α peptide with the complex formed by VHL, EloB and EloC (VBC), to generate a fluorescent signal. Terbium (Tb)-Donor (monoclonal antibody anti-6His-Tb-cryptate Gold) and D2-acceptor (streptavidin [SA]-D2) of TR-FRET are linked to the VBC complex and to HIF-1α peptide, respectively. The VBC complex binds specifically to the HIF-1α peptide when it is hydroxylated, allowing energy transfer from TR-FRET donor to acceptor (FIG. 1). […] The plates were incubated for 30 minutes at room temperature without rotation. […] TR-FRET assays were performed in triplicate at each concentration of compound and the assays were repeated independently three times.
# [1] = read-out: PHD2 IC50, TR-FRET, 5 nM PHD2, 1 μM 2-OG
# Sequence of full-length human PHD2 (Q9GZT9 whole entry): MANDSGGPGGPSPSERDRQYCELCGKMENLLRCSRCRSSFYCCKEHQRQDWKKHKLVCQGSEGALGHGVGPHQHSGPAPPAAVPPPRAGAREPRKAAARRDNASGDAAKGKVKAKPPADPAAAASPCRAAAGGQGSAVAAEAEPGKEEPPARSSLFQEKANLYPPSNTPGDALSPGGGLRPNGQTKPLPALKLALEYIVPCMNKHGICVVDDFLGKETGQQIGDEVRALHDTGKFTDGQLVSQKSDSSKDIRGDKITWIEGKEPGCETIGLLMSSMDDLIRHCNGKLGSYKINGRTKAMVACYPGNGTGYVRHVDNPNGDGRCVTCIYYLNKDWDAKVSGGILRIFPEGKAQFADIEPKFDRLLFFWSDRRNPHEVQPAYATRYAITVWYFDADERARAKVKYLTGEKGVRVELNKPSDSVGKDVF
# Sequence of full-length human PHD1 (Q96KS0 whole entry): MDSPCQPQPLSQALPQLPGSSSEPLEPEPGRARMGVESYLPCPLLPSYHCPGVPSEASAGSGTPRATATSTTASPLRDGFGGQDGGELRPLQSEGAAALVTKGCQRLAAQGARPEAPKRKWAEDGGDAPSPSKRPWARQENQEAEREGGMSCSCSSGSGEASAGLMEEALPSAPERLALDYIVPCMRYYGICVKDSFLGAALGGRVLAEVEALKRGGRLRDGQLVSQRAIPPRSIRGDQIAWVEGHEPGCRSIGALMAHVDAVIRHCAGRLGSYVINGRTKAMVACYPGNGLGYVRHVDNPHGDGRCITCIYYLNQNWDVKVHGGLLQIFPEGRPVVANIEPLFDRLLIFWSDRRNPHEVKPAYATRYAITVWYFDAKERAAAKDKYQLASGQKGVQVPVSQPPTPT
SMILES,pIC50 (full-length human PHD1),pIC50 (full-length human PHD2),pIC50 (full-length human PHD2; [1]),Km (full-length human PHD1; read-out: Km of 2-OG for PHD1) [µM]
Cc1c(CCc2ccccc2)cnc(C(=O)NCC(=O)O)c1O [Compound 61],6.00 to 7.00,6.00 to 7.00,–,–
Cc1c(C#Cc2ccccc2)cnc(C(=O)NCC(=O)O)c1O [Compound 62],> 7.00,–,> 7.00,–
Cc1c(-c2cnn(-c3ccc(Cl)cc3Cl)c2)cnc(C(=O)NCC(=O)O)c1O [Compound 60],> 7.00,–,> 7.00,–
"Cc1c(-c2cccc(Cl)c2)cnc(C(=O)NC(C)(C)C(=O)O)c1O [Compound 13, 2-(5-(3-Chlorophenyl)-3-hydroxy-4-methylpicolinamido)-2-methylpropanoic Acid]",< 5.00,< 5.00,–,–
Cc1c(-c2nnn(C3CC3)n2)cnc(C(=O)NCC(=O)O)c1O [Compound 52],> 7.00,–,> 7.00,–
"Cc1cc(Cc2ccc(F)cc2)c(O)c(C(=O)NCC(=O)O)n1 [Compound 24, (4-(4-Fluorobenzyl)-3-hydroxy-6-methylpicolinoyl)glycine]",6.00 to 7.00,6.00 to 7.00,–,–
"Cc1c(-c2ccccn2)cnc(C(=O)NCC(=O)O)c1O [Compound 12, (5′-Hydroxy-4′-methyl-[2,3′-bipyridine]-6′-carbonyl)glycine]",> 7.00,–,> 7.00,–
"Cc1c(-c2cccc(Cl)c2)cnc(C(=O)NC2(C(=O)O)COC2)c1O [Compound 16, 3-(5-(3-Chlorophenyl)-3-hydroxy-4-methylpicolinamido)oxetane-3-carboxylic Acid]",5.00 to 6.00,< 5.00,–,–
Cc1c(-c2nn[nH]n2)cnc(C(=O)NCC(=O)O)c1O [Compound 64],6.00 to 7.00,6.00 to 7.00,–,–
"O=C(O)CNC(=O)c1ncc(-c2cccc(Cl)c2)c(C2CC2)c1O [Compound 69, (5-(3-Chlorophenyl)-4-cyclopropyl-3-hydroxypicolinoyl)glycine]",6.00 to 7.00,6.00 to 7.00,–,–
"Cc1cc(CCOCc2ccccc2)c(O)c(C(=O)NCC(=O)O)n1 [Compound 23, (4-(2-(Benzyloxy)ethyl)-3-hydroxy-6-methylpicolinoyl)glycine]",6.00 to 7.00,6.00 to 7.00,–,–
"Cc1c(-c2cnn(-c3ccccc3)c2)cnc(C(=O)NCC(=O)O)c1O [Compound 4, (3-Hydroxy-4-methyl-5-(1-phenyl-1H-pyrazol-4-yl)picolinoyl)glycine]",> 7.00,–,> 7.00,–
Cc1c(S(=O)(=O)c2ccccc2)cnc(C(=O)NCC(=O)O)c1O [Compound 54],6.00 to 7.00,6.00 to 7.00,–,–
"Cc1c(-c2ccc3c(c2)CCC(C)N3)cnc(C(=O)NCC(=O)O)c1O (stereo not shown) [Compound 17, (3-Hydroxy-4-methyl-5-(2-methyl-1,2,3,4-tetrahydroquinolin-6-yl)picolinoyl)glycine]",> 7.00,–,> 7.00,–
"Cc1c(-c2cccc(Oc3ccccc3)c2)cnc(C(=O)NCC(=O)O)c1O [Compound 8, (3-Hydroxy-4-methyl-5-(3-phenoxyphenyl)picolinoyl)glycine]",> 7.00,–,> 7.00,–
Cc1c(N2CCN(c3ccccc3)CC2)cnc(C(=O)NCC(=O)O)c1O [Compound 55],> 7.00,6.00 to 7.00,–,–
"Cc1c(-c2ccc3ncccc3c2)cnc(C(=O)NCC(=O)O)c1O [Compound 34, (3-hydroxy-4-methyl-5-(quinolin-6-yl)picolinoyl)glycine]",> 7.00,–,> 7.00,–
"O=C(O)CCC(=O)C(=O)O [Compound 2-OG, 2-oxoglutarate, reference compound]",–,–,–,0.0127
"CCc1c(-c2cccc(Cl)c2)cnc(C(=O)NCC(=O)O)c1O [Compound 46, (5-(3-chlorophenyl)-4-ethyl-3-hydroxypicolinoyl)glycine]",> 7.00,–,> 7.00,–

SMILES,pIC50 (full-length human PHD1),pIC50 (full-length human PHD2),pIC50 (full-length human PHD2; [1]),Km (full-length human PHD1; read-out: Km of 2-OG for PHD1) [µM]
"O=C(O)CNC(=O)c1ncc(-c2cccc(Cl)c2)c(C(F)F)c1O [Compound 70, (5-(3-Chlorophenyl)-4-(difluoromethyl)-3-hydroxypicolinoyl)glycine]",6.00 to 7.00,6.00 to 7.00,–,–
"Cc1c(-c2ccncc2)cnc(C(=O)NCC(=O)O)c1O [Compound 11, (5-Hydroxy-4-methyl-[3,4′-bipyridine]-6-carbonyl)glycine]",> 7.00,–,> 7.00,–
"Cc1c(C(=O)c2ccccc2)cnc(C(=O)NCC(=O)O)c1O [Compound 40, (5-benzoyl-3-hydroxy-4-methylpicolinoyl)glycine]",6.00 to 7.00,6.00 to 7.00,–,–
Cc1c(Cc2ccccc2)cnc(C(=O)NCC(=O)O)c1O [Compound 58],5.00 to 6.00,6.00 to 7.00,–,–
"Cc1c(-c2cccc(Cl)c2)cnc(C(=O)NC2(C(=O)O)CCC2)c1O [Compound 15, 1-(5-(3-Chlorophenyl)-3-hydroxy-4-methylpicolinamido)cyclobutane-1-carboxylic acid]",< 5.00,< 5.00,–,–
"Cc1c(Oc2ccccc2)cnc(C(=O)NCC(=O)O)c1O [Compound 35, (3-hydroxy-4-methyl-5-phenoxypicolinoyl)glycine]",6.00 to 7.00,–,6.00 to 7.00,–
"Cc1c(-c2cnn(-c3ccccc3)c2C)cnc(C(=O)NCC(=O)O)c1O [Compound 50, (3-hydroxy-4-methyl-5-(5-methyl-1-phenyl-1H-pyrazol-4-yl)picolinoyl)glycine]",6.00 to 7.00,6.00 to 7.00,–,–
"Cc1c(-c2cnn(-c3ccccc3)c2F)cnc(C(=O)NCC(=O)O)c1O [Compound 49, (5-(5-fluoro-1-phenyl-1H-pyrazol-4-yl)-3-hydroxy-4-methylpicolinoyl)glycine]",> 7.00,–,> 7.00,–
"Cc1c(Oc2ccccc2)cnc(C(=O)NCC(=O)O)c1O [Compound 57, 2-(3-hydroxy-4-methyl-5-phenoxypicolinamido)acetic acid]",5.00 to 6.00,6.00 to 7.00,–,–
"Cc1c(-c2cccc(Cl)c2)cnc(C(=O)NC2(C(=O)O)CC2)c1O [Compound 14, 1-(5-(3-Chlorophenyl)-3-hydroxy-4-methylpicolinamido)cyclopropane-1-carboxylic acid]",5.00 to 6.00,5.00 to 6.00,–,–
Cc1c(N2CCC(c3ccccc3)CC2)cnc(C(=O)NCC(=O)O)c1O [Compound 56],> 7.00,–,> 7.00,–
Cc1c(-c2cnn(-c3ccc(C(F)(F)F)cc3)c2)cnc(C(=O)NCC(=O)O)c1O [Compound 67],> 7.00,–,> 7.00,–
"Cc1c(-c2cccc(F)c2)cnc(C(=O)NCC(=O)O)c1O [Compound 1, (5-(3-Fluorophenyl)-3-hydroxy-4-methylpicolinoyl)glycine]",> 7.00,–,> 7.00,–
"Cc1c(-c2nnn(-c3cc(Cl)cc(Cl)c3)n2)cnc(C(=O)NCC(=O)O)c1O [Compound 45, (5-(2-(3,5-dichlorophenyl)-2H-tetrazol-5-yl)-3-hydroxy-4-methylpicolinoyl)glycine]",> 7.00,–,> 7.00,–
"Cc1c(-c2cnn(C3CCN(C(=O)OC(C)(C)C)CC3)c2)cnc(C(=O)NCC(=O)O)c1O [Compound 6, (5-(1-(1-(Tert-butoxycarbonyl)piperidin-4-yl)-1H-pyrazol-4-yl)-3-hydroxy-4-methylpicolinoyl)glycine]",> 7.00,–,> 7.00,–
Cc1c(-c2cnn(-c3cc(Cl)cc(Cl)c3)c2)cnc(C(=O)NCC(=O)O)c1O [Compound 66],> 7.00,–,> 7.00,–
Cc1c(-c2nnn(-c3ccc(Cl)cc3)n2)cnc(C(=O)NCC(=O)O)c1O [Compound 63],> 7.00,–,> 7.00,–
Cc1c(-c2ccn(-c3ccccc3)c2)cnc(C(=O)NCC(=O)O)c1O [Compound 51],> 7.00,6.00 to 7.00,–,–
